In patent US11078232B2, “Preparation and use of molecular site targeted and activated kinase inhibitor” (Yafei Shanghai Biology Medicine Science & Technology Co. …, priority 2017, dated 2021):

Tests used:
[1] = Solid stability, 60° C. for 10 days in the dark (HPLC); assay type: physicochemical; conditions: solid, 60° C., 10 days, dark; for Stability(%): content versus time 0
Experimental: The test was carried out by leaving it at 60° C. for 10 days in the dark. The ratio of the change in the content of the compound to the compound at time 0 was measured by HPLC, and the stability value (%) was calculated.

aspartic endopeptidase = biological target: T1, aspartic endopeptidase (Homo sapiens, UniProt Q99538); assay: Activation efficiency by aspartic endopeptidase (HPLC); assay type: biochemical; conditions: 1 mg/ml compound, enzyme 1 μmol/L, pH 6.0, 37° C., 2 hours; ratio of released product to original compound
T1 sequence (Q99538 18-323): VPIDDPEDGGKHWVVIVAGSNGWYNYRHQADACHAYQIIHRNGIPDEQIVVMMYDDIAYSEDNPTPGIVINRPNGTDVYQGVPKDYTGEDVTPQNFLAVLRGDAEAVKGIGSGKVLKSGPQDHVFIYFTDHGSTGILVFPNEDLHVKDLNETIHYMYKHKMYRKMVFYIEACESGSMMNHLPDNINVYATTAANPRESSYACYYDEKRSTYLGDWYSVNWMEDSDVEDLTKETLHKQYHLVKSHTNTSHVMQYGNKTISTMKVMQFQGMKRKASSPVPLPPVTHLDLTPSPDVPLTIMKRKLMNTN
Experimental: The sample compound and a portion of the control compound (herein, all of the control compounds can be synthesized by a method similar to that described in Examples 1-3) were uniformly diluted 10-fold to 1 mg/ml with the enzyme-digesting solution. In this experiment, 1 mg/ml of the sample compound was added to the aspartic endopeptidase (1 μmol/L, pH 6.0) at 37° C. for 2 hours. After the reaction, the enzyme digest was able to release the enzyme-digested product. The decrease in the compound and the increase in the product were examined by HPLC to compare the enzyme activation efficiency (the ratio of the product released by the enzyme cleavage to the original compound).

[2] = Drug content in tumor tissue homogenate (HPLC); assay type: in vivo; conditions: 10 micromoles per kilogram intravenous, tumor-bearing mice, FIG. 4
Experimental: Intravenous injection of 10 micromoles per kilogram of the drug into tumor-bearing mice, surgically obtained tumor tissue homogenate, and the drug content was determined by the HPLC method.

[3] = system: Tumor-associated macrophages (M2 type); assay: MTT toxicity on tumor-associated macrophages (M2 type); assay type: cell-based; conditions: 48 hours, pH 6.5, MTT, FIG. 7
Experimental: Tumor-associated macrophages (M2 type) induced by mononuclear bone marrow cells were collected by M-CSF (10 ng/ml), the cell suspension concentration was adjusted, 140 ul per well was added, and the cells were adjusted to a density of ˜3000 […]. 5% CO2, incubate at 37° C. overnight, until the cell monolayer is covered with the bottom of the well (96-well flat bottom plate), and then add a continuous concentration gradient to give different concentrations of the drug, the drug is set to 9 concentration gradients, 10 μl per well, set Three replicate wells; 5% CO2, incubated at 37° C., pH 6.5 for 48 hours, observed under an inverted microscope; 20 μl of MTT solution (5 mg/ml, i.e., 0.5% MTT) was added to each well and culture was continued for 4 h. The culture was terminated, and the culture solution in the well was carefully aspirated; 100 ul of dimethyl sulfoxide was added to each well, and shaken on a shaker at a low speed for 10 min to dissolve the crystals sufficiently. The absorbance of each well was measured at an enzyme-linked immunosorbent detector at OD490 nm. At the same time, zero adjustment holes (medium, MTT, dimethyl sulfoxide), control group (cell, same concentration of drug dissolution medium, medium, MTT, dimethyl sulfoxide) were set. The toxicity of the compound to tumor-associated macrophages (M2 type) was analyzed after the test. The inhibition of tumor-associated macrophages (M2 type) by different drugs was compared. […] Compound a, sorafenib, is also toxic because it is not a targeted activating drug.

D121 lung cancer cells = assay: D121 lung cancer immunotherapy model; conditions: for Tumor inhibition rate/% (week 7) / CD8: CD45 (%): single agent; for Tumor inhibition rate/% (week 7): i.v. ⅙ MTD once a week for 4 weeks; for CD8: CD45 (%): tumor CD8+ T cells among CD45-positive cells
Experimental: (1) D121 lung cancer cells purchased from ATCC were cultured in DMEM medium containing 10% fetal bovine serum at 37° C. and 5% CO2, and the cells were digested with EDTA trypsin according to routine use, and passed two to three times a week for placement.
(2) Animals: C57 BALB/C mice, 6-8 weeks old, female, weighing about 18-22 g, purchased from Shanghai SLAC Laboratory Animal Co., Ltd.
3) Immunization: Mice were intraperitoneally injected with 100 μL of 5×10^5 D121 lung cancer cells that died by repeated freeze-thaw cycles, and immunized 3 times with an interval of 2 weeks.
4) Cell seeding: Collect the tumor cells in logarithmic growth phase, adjust the D121 cell concentration to (1×10^7/ml) with DMEM basal medium, 0.1 ml of the cell suspension was inoculated to the right side of each mouse subcutaneously with a 1 ml syringe. […] Tumor volume was observed and measured, and the average tumor volume reached 100-200 mm^3 about 7 days after inoculation, that is, tumor cell-bearing mice were grouped and administered. The immunized group in Table 9 was immunized with D121 lung cancer cells, and the D121 dead tumor cell immunized group was injected with physiological saline as a control.
The immunosuppressive regulatory point protein Anti-PD-L1 antibody was injected twice a week. A total of two weeks.
6) Experimental observation: During the whole experiment, the use and observation of experimental animals were carried out in accordance with the regulations of AAALAC. The experimental animals were observed daily after inoculation of tumor cells, and their onset and death were recorded. During the routine experiment, all experimental animals were monitored and recorded for behavior, feeding, water intake, weight change, hair shine and other abnormalities.
(7) Analysis of tumor CD8+ T cells (T lymphocyte subsets). Tumor tissues were ground and single cancer cells were isolated by filtration using 40 μm Nylon cell strainer, lysed twice with blood cell lysis buffer for 20 min, washed twice with 1% BSA-PBS buffer, centrifuged, and resuspended, and then the cells were counted again. 1×10^5 cells were incubated with leukocyte co-antigen CD45-PE and CD8-FITC-labeled antibody for 1 hour at room temperature in the dark, and then analyzed the proportion of T lymphocyte antigen (CD8) in leukocyte common antigen (CD45)-positive cells by flow cytometry.

CT26 tumor cells [4] = assay: CT26 immunotherapy model (Example 15); assay type: in vivo, mice; conditions: for Cure rate % / Number of cures: 10 in each group; for Tumor inhibition rate % (Day 42): IV ⅓ MTD once a week, 6 weeks; for Recurrence rate % (Week 7): cured mice re-inoculated with CT26 cells after 50 days
Experimental: (§1) 1) CT26 tumor cells were purchased from ATCC, and the cells were cultured using a 10% fetal bovine serum DMEM medium at 37° C., 5% CO2. The cells were passaged every 3 days and the cells were used within 15 generations.
(§2) 2) Tumor production: 10^6 live CT26 tumor cells were injected subcutaneously into the back of tumor-immunized […], and treatment was started when the tumor grew to about 0.3-0.4 cm. The tumor size (mm^3) of the mice was recorded and compared with the solvent control group. The tumor inhibition rate on day 42 was calculated in the solvent control group.
(§3) 3) Treatment process: IV injection is used, and the drug is used at a dose of ⅓ MTD once a week Immunosuppressive IV injection treatment once a week for a total of 6 weeks of treatment.
(§4) 4) The cure rate of 10 in each group was counted. After 50 days, the cured mice and wild groups were inoculated […] to detect recurrence.

Heg2 cells = assay: MTT cytotoxicity on Heg2 cells; assay type: cell-based; conditions: FIG. 3; for toxicity to Heg2 cells: 48 hours, pH 6.5, MTT; for inhibition of cancer cells versus positive controls: cell viability experiments
Experimental: Collect logarithmic Heg2 cells, adjust the cell suspension concentration, add 140 ul per well, and plate to adjust the density of the cells to be tested ˜5000/well; 5% CO2, incubate at 37° C. overnight, until the cell monolayer is covered with the bottom of the well (96) Condensate bottom plate), adding continuous concentration gradient to give different concentrations of compound S1, compound a and sorafenib, the drug set 9 concentration gradients, 10 ul per well, set 3 duplicate wells; 5% CO2, 37° C. PH6 0.5 incubation for 48 hours, observed under an inverted microscope; 20 μl of MTT solution (5 mg/ml, i.e. 0.5% MTT) was added to each well and incubation was continued for 4 h. The culture was terminated, and the culture solution in the well was carefully aspirated; 100 ul of dimethyl sulfoxide was added to each well, and shaken on a shaker at a low speed for 10 min to dissolve the crystals sufficiently. The absorbance of each well was measured at an enzyme-linked immunosorbent detector at OD490 nm. At the same time, zero adjustment holes (medium, MTT, dimethyl sulfoxide), control group (cell, same concentration of drug dissolution medium, medium, MTT, dimethyl sulfoxide) were set.

[5] = MTD (maximum tolerated dose) acute toxicity in mice; assay type: in vivo, mouse; conditions: female, mouse, in vivo; BALB/C mice, intravenous, observed 17 days
Text: (§5) Test purpose: to investigate the acute toxicity of highly activated compounds by targeted site molecules of the invention by measuring the MTD (maximum tolerated dose) experiment in mice.
(§6) The injections of each drug and the control drug were uniformly dissolved using water for injection, and diluted to the corresponding dose with physiological saline during the test.
(§7) Methods and results: […] BALB/C mice, weighing 19-21 g, were randomly divided into 10 groups, with 10 mice in each group. […] A control test of the saline group and the adriamycin group injection (commercially available, Beijing Yue kang) was carried out, and the injection volume of each mouse was 0.2 ml. […] On the D3, D5, and D14, blood samples were taken for whole blood count.

BALB/C mouse = assay: as above; assay type: in vivo; conditions: intravenous; for Number of deaths: 10 mice per group; for Death dose: observed 17 days
Text: as §5, §6, §7

[6] = Tumor tissue distribution by autofluorescence after intravenous injection; assay type: in vivo; conditions: 10 μmol/kg intravenously, after 12 hours, FIG. 2
Experimental: Since DOX, Succinyl-AANL-DOX and S3 have autofluorescence, they can be detected by fluorescence microscopy in tumor tissues. 10 μmol/kg of DOX, Succinyl-AANL-DOX and S3 were injected intravenously. After 12 hours, the drug distribution image of the tumor tissue sections and the fluorescence intensity of the tumor tissue homogenate were measured. Nuclear staining was performed using DAPI.

CT26 tumor cells [7] = assay: CT26 treatment model (Example 17); assay type: in vivo, mice; conditions: CT26 model as in Example 15
Experimental: as §1, §2, §3, §4
The CT26 immunotherapy model was constructed as in Example 15, and the pharmacodynamic and immunotherapeutic effects of the compounds S4-S6, S9-S12 and S15-S18 in the CT26 treatment model were tested.

[8] = Stability of sorafenib derivatives in buffer systems; assay type: physicochemical; conditions: weak acid, weak base and neutral buffer
Text: In order to solve this dilemma, the present invention performs allosteric synthesis and screening of the ortho-carboxamide group of the pyridine ring in the sorafenib molecule, and obtains a special compound which satisfies both the structure-activity relationship and the release effect. That is, compound a and compound b).

Row | Compound | Stability verdict (stable / unstable) [1] | Stability(%) [1] [%] | Activation efficiencies (%) (aspartic endopeptidase) | drug distribution in the tumor [2] | toxicity to / activation by tumor-associated macrophages (M2 type) [3] | Tumor inhibition rate/% (week 7) (D121 lung cancer cells) [%] | CD8: CD45 (%) (D121 lung cancer cells; flow cytometry) | Cure rate % (CT26 tumor cells [4]) [%] | Number of cures (CT26 tumor cells [4]) | Tumor inhibition rate % (Day 42) (CT26 tumor cells [4]) [%] | Recurrence rate % (Week 7) (CT26 tumor cells [4]) [%] | toxicity to Heg2 cells (Heg2 cells) | MTD at 17 days [5] [mg/kg] | Number of deaths (BALB/C mouse) | Death dose (BALB/C mouse) [mg/kg] | inhibition of cancer cells versus positive controls (Heg2 cells) | stability in buffer systems [8] | further results
1 | CC(NC(=O)C(C)NC(=O)[C@H](O)[C@H](O)[C@@H](O[C@@H]1O[C@H](CO)[C@H](O)[C@H](O)[C@H]1O)[C@H](O)CO)C(=O)NC(CC(N)=O)C(=O)Nc1ccc(COC(=O)N(C)CCNC(=O)c2cc(Oc3ccc(NC(=O)Nc4ccc(Cl)c(C(F)(F)F)c4)cc3)ccn2)cc1 (stereo partly drawn) [Compound S1, Lacto-AAN-PABC-compound a] | stable | 96.7 | 86.7 | multiplied in the distribution of sorafenib in the tumor | more susceptible to phagocytosis and activation by macrophages than other methods of linker | 53.4 | 11.0 | 40 | 4 | 94.7 | 0 | non-toxic to normal cells | 300 | 1 | 350 | – | – | –
2 | COc1cccc2c1C(=O)c1c(O)c3c(c(O)c1C2=O)C[C@](O)(C(=O)CO)CC3OC1C[C@H](NC(=O)OCc2ccc(NC(=O)C(CC(N)=O)NC(=O)C(C)NC(=O)C(C)NC(=O)[C@H](O)[C@H](O)[C@@H](O[C@@H]3O[C@H](CO)[C@H](O)[C@H](O)[C@H]3O)[C@H](O)CO)cc2)[C@H](O)[C@H](C)O1 (stereo partly drawn) [Compound S3, Lacto-AAN-PABC-Adriamycin] | stable | 99.8 | 82.6 | increasing the distribution in the tumor compared to C11 | – | 62.5 | 14.6 | 80 | 8 | 82.5 | 0 | – | 100 | 1 | 110 | – | – | tumor tissue distribution and penetration [6]: more tumor tissue distribution and penetration after intravenous injection than Succinyl-AANL-DOX
3 | CNC(=O)c1cc(Oc2ccc(NC(=O)Nc3ccc(Cl)c(C(F)(F)F)c3)cc2)ccn1 [Sorafenib, reference compound] | – | – | – | – | also toxic | 24.5 | 6.4 | – | – | – | – | – | 11 | 0 | 12 | – | – | effect on T cells (D121 lung cancer cells; flow cytometry, discussion of Table 6): inhibited T cells; CD8: CD45 (%) (CT26 tumor cells [7]): 7.2%; Number of animals cured (CT26 tumor cells [7]): 0; Tumor inhibition rate/% (at week 7) (CT26 tumor cells [7]): 15.7%
4 | CNCCNC(=O)c1cc(Oc2ccc(NC(=O)Nc3ccc(Cl)c(C(F)(F)F)c3)cc2)ccn1 [compound a] | – | – | – | – | also toxic | – | – | – | – | – | – | more toxic than sorafenib | – | – | – | inhibited cancer cells better than the positive control drugs sorafenib and regorafenib | stable in weak acid, weak base and neutral buffer system, did not degrade | –
5 | CNCCNC(=O)c1cc(Oc2ccc(NC(=O)Nc3ccc(Cl)c(C(F)(F)F)c3)c(F)c2)ccn1 [compound b] | – | – | – | – | – | – | – | – | – | – | – | – | – | – | – | inhibited cancer cells better than the positive control drugs sorafenib and regorafenib | stable in weak acid, weak base and neutral buffer system, did not degrade | –
